# Source: PubChem BioAssay (NCI)
#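 48-hour exposure; five concentrations; linearly interpolated endpoints. GI50: concentration for 50% inhibition of growth. TGI: concentration producing complete growth inhibition.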
# Legend:
# Test in all cases: growth of human tumour cells (NCI), 48 h
# 786-0 renal = system: 786-0 renal
# A498 renal = system: A498 renal
# A549 NSCLC = system: A549 NSCLC
# ACHN renal = system: ACHN renal
# CCRF-CEM leukemia = system: CCRF-CEM leukemia
# COLO 205 colon = system: COLO 205 colon
# DLD-1 colon = system: DLD-1 colon
# DMS 273 small cell lung = system: DMS 273 small cell lung
# EKVX NSCLC = system: EKVX NSCLC
# HCC-2998 colon = system: HCC-2998 colon
# HCT-116 colon = system: HCT-116 colon
# HCT-15 colon = system: HCT-15 colon
# HOP-62 NSCLC = system: HOP-62 NSCLC
# HOP-92 NSCLC = system: HOP-92 NSCLC
# HT29 colon = system: HT29 colon
# IGROV1 ovarian = system: IGROV1 ovarian
# K-562 leukemia = system: K-562 leukemia
# KM12 colon = system: KM12 colon
# KM20L2 colon = system: KM20L2 colon
# LOX IMVI melanoma = system: LOX IMVI melanoma
# LXFL 529 NSCLC = system: LXFL 529 NSCLC
# M14 melanoma = system: M14 melanoma
# MALME-3M melanoma = system: MALME-3M melanoma
# MOLT-4 leukemia = system: MOLT-4 leukemia
# NCI-H23 lung = system: NCI-H23 lung
# NCI-H460 lung = system: NCI-H460 lung
# NCI-H522 lung = system: NCI-H522 lung
# OVCAR-3 ovarian = system: OVCAR-3 ovarian
# OVCAR-4 ovarian = system: OVCAR-4 ovarian
# OVCAR-5 ovarian = system: OVCAR-5 ovarian
# OVCAR-8 ovarian = system: OVCAR-8 ovarian
# RPMI-8226 leukemia = system: RPMI-8226 leukemia
# SF-268 CNS = system: SF-268 CNS
# SF-295 CNS = system: SF-295 CNS
# SF-539 CNS = system: SF-539 CNS
# SK-MEL-2 melanoma = system: SK-MEL-2 melanoma
# SK-MEL-28 melanoma = system: SK-MEL-28 melanoma
# SK-MEL-5 melanoma = system: SK-MEL-5 melanoma
# SK-OV-3 ovarian = system: SK-OV-3 ovarian
# SN12C renal = system: SN12C renal
# SNB-19 CNS = system: SNB-19 CNS
# SNB-75 CNS = system: SNB-75 CNS
# SNB-78 CNS = system: SNB-78 CNS
# SW-620 colon = system: SW-620 colon
# TK-10 renal = system: TK-10 renal
# U251 CNS = system: U251 CNS
# UACC-257 melanoma = system: UACC-257 melanoma
# UACC-62 melanoma = system: UACC-62 melanoma
# UO-31 renal = system: UO-31 renal
# BT-549 breast = system: BT-549 breast
# CAKI-1 renal = system: CAKI-1 renal
# DU-145 prostate = system: DU-145 prostate
# HL-60(TB) leukemia = system: HL-60(TB) leukemia
# HS 578T breast = system: HS 578T breast
# MCF7 breast = system: MCF7 breast
# MDA-MB-231 breast = system: MDA-MB-231 breast
# MDA-MB-435 = system: MDA-MB-435
# MDA-N = system: MDA-N
# NCI-H226 lung = system: NCI-H226 lung
# NCI/ADR-RES ovarian = system: NCI/ADR-RES ovarian
# PC-3 prostate = system: PC-3 prostate
# RXF 393 renal = system: RXF 393 renal
# SR leukemia = system: SR leukemia
# T-47D breast = system: T-47D breast
structure (smiles),measurement,setting,value
N.N.N.N.N.NC(=O)[O-].[Co+3].[I-],GI50,786-0 renal,> 100 µM
same,TGI,786-0 renal,> 100 µM
same,GI50,A498 renal,> 100 µM
same,TGI,A498 renal,> 100 µM
same,GI50,A549 NSCLC,> 100 µM
same,TGI,A549 NSCLC,> 100 µM
same,GI50,ACHN renal,> 100 µM
same,TGI,ACHN renal,> 100 µM
same,GI50,CCRF-CEM leukemia,> 100 µM
same,TGI,CCRF-CEM leukemia,> 100 µM
same,GI50,COLO 205 colon,> 100 µM
same,TGI,COLO 205 colon,> 100 µM
same,GI50,DLD-1 colon,> 100 µM
same,TGI,DLD-1 colon,> 100 µM
same,GI50,DMS 273 small cell lung,> 100 µM
same,TGI,DMS 273 small cell lung,> 100 µM
same,GI50,EKVX NSCLC,> 100 µM
same,TGI,EKVX NSCLC,> 100 µM
same,GI50,HCC-2998 colon,> 100 µM
same,TGI,HCC-2998 colon,> 100 µM
same,GI50,HCT-116 colon,> 100 µM
same,TGI,HCT-116 colon,> 100 µM
same,GI50,HCT-15 colon,> 100 µM
same,TGI,HCT-15 colon,> 100 µM
same,GI50,HOP-62 NSCLC,> 100 µM
same,TGI,HOP-62 NSCLC,> 100 µM
same,GI50,HOP-92 NSCLC,> 100 µM
same,TGI,HOP-92 NSCLC,> 100 µM
same,GI50,HT29 colon,> 100 µM
same,TGI,HT29 colon,> 100 µM
same,GI50,IGROV1 ovarian,> 100 µM
same,TGI,IGROV1 ovarian,> 100 µM
same,GI50,K-562 leukemia,> 100 µM
same,TGI,K-562 leukemia,> 100 µM
same,GI50,KM12 colon,> 100 µM
same,TGI,KM12 colon,> 100 µM
same,GI50,KM20L2 colon,> 100 µM
same,TGI,KM20L2 colon,> 100 µM
same,GI50,LOX IMVI melanoma,> 100 µM
same,TGI,LOX IMVI melanoma,> 100 µM
same,GI50,LXFL 529 NSCLC,> 100 µM
same,TGI,LXFL 529 NSCLC,> 100 µM
same,GI50,M14 melanoma,> 100 µM
same,TGI,M14 melanoma,> 100 µM
same,GI50,MALME-3M melanoma,> 100 µM
same,TGI,MALME-3M melanoma,> 100 µM
same,GI50,MOLT-4 leukemia,> 100 µM
same,TGI,MOLT-4 leukemia,> 100 µM
same,GI50,NCI-H23 lung,> 100 µM
same,TGI,NCI-H23 lung,> 100 µM
same,GI50,NCI-H460 lung,> 100 µM
same,TGI,NCI-H460 lung,> 100 µM
same,GI50,NCI-H522 lung,> 100 µM
same,TGI,NCI-H522 lung,> 100 µM
same,GI50,OVCAR-3 ovarian,> 100 µM
same,TGI,OVCAR-3 ovarian,> 100 µM
same,GI50,OVCAR-4 ovarian,> 100 µM
same,TGI,OVCAR-4 ovarian,> 100 µM
same,GI50,OVCAR-5 ovarian,> 100 µM
same,TGI,OVCAR-5 ovarian,> 100 µM
same,GI50,OVCAR-8 ovarian,> 100 µM
same,TGI,OVCAR-8 ovarian,> 100 µM
same,GI50,RPMI-8226 leukemia,> 100 µM
same,TGI,RPMI-8226 leukemia,> 100 µM
same,GI50,SF-268 CNS,> 100 µM
same,TGI,SF-268 CNS,> 100 µM
same,GI50,SF-295 CNS,> 100 µM
same,TGI,SF-295 CNS,> 100 µM
same,GI50,SF-539 CNS,> 100 µM
same,TGI,SF-539 CNS,> 100 µM
same,GI50,SK-MEL-2 melanoma,> 100 µM
same,TGI,SK-MEL-2 melanoma,> 100 µM
same,GI50,SK-MEL-28 melanoma,> 100 µM
same,TGI,SK-MEL-28 melanoma,> 100 µM
same,GI50,SK-MEL-5 melanoma,> 100 µM
same,TGI,SK-MEL-5 melanoma,> 100 µM
same,GI50,SK-OV-3 ovarian,> 100 µM
same,TGI,SK-OV-3 ovarian,> 100 µM
same,GI50,SN12C renal,> 100 µM
same,TGI,SN12C renal,> 100 µM
same,GI50,SNB-19 CNS,> 100 µM
same,TGI,SNB-19 CNS,> 100 µM
same,GI50,SNB-75 CNS,18.7 µM
same,TGI,SNB-75 CNS,> 100 µM
same,GI50,SNB-78 CNS,> 100 µM
same,TGI,SNB-78 CNS,> 100 µM
same,GI50,SW-620 colon,> 100 µM
same,TGI,SW-620 colon,> 100 µM
same,GI50,TK-10 renal,> 100 µM
same,TGI,TK-10 renal,> 100 µM
same,GI50,U251 CNS,> 100 µM
same,TGI,U251 CNS,> 100 µM
same,GI50,UACC-257 melanoma,> 100 µM
same,TGI,UACC-257 melanoma,> 100 µM
same,GI50,UACC-62 melanoma,> 100 µM
same,TGI,UACC-62 melanoma,> 100 µM
same,GI50,UO-31 renal,> 100 µM
same,TGI,UO-31 renal,> 100 µM
CCOC(=O)c1cc(-n2nnc3ccccc32)cn1C,TGI,786-0 renal,> 10 µM
same,TGI,A498 renal,> 10 µM
same,TGI,A549 NSCLC,> 10 µM
same,TGI,ACHN renal,> 10 µM
same,TGI,BT-549 breast,> 10 µM
same,TGI,CAKI-1 renal,> 10 µM
same,TGI,CCRF-CEM leukemia,> 10 µM
same,TGI,COLO 205 colon,> 10 µM
same,TGI,DU-145 prostate,> 10 µM
same,TGI,EKVX NSCLC,> 10 µM
same,TGI,HCC-2998 colon,> 10 µM
same,TGI,HCT-116 colon,> 10 µM
same,TGI,HCT-15 colon,> 10 µM
same,TGI,HL-60(TB) leukemia,> 10 µM
same,TGI,HOP-62 NSCLC,> 10 µM
same,TGI,HOP-92 NSCLC,> 10 µM
same,TGI,HS 578T breast,> 10 µM
same,TGI,HT29 colon,> 10 µM
same,TGI,IGROV1 ovarian,> 10 µM
same,TGI,K-562 leukemia,> 10 µM
same,TGI,KM12 colon,> 10 µM
same,TGI,LOX IMVI melanoma,> 10 µM
same,TGI,M14 melanoma,> 10 µM
same,TGI,MALME-3M melanoma,> 10 µM
same,TGI,MCF7 breast,> 10 µM
same,TGI,MDA-MB-231 breast,> 10 µM
same,TGI,MDA-MB-435,> 10 µM
same,TGI,MDA-N,> 10 µM
same,TGI,MOLT-4 leukemia,> 10 µM
same,TGI,NCI-H226 lung,> 10 µM
same,TGI,NCI-H23 lung,> 10 µM
same,TGI,NCI-H460 lung,> 10 µM
same,TGI,NCI-H522 lung,> 10 µM
same,TGI,NCI/ADR-RES ovarian,> 10 µM
same,TGI,OVCAR-3 ovarian,> 10 µM
same,TGI,OVCAR-4 ovarian,> 10 µM
same,TGI,OVCAR-5 ovarian,> 10 µM
same,TGI,OVCAR-8 ovarian,> 10 µM
same,TGI,PC-3 prostate,> 10 µM
same,TGI,RPMI-8226 leukemia,> 10 µM
same,TGI,RXF 393 renal,> 10 µM
same,TGI,SF-268 CNS,> 10 µM
same,TGI,SF-295 CNS,> 10 µM
same,TGI,SF-539 CNS,> 10 µM
same,TGI,SK-MEL-2 melanoma,> 10 µM
same,TGI,SK-MEL-28 melanoma,> 10 µM
same,TGI,SK-MEL-5 melanoma,> 10 µM
same,TGI,SK-OV-3 ovarian,> 10 µM
same,TGI,SN12C renal,> 10 µM
same,TGI,SNB-19 CNS,> 10 µM
same,TGI,SNB-75 CNS,> 10 µM
same,TGI,SR leukemia,> 10 µM
same,TGI,T-47D breast,> 10 µM
same,TGI,TK-10 renal,> 10 µM
same,TGI,U251 CNS,> 10 µM
same,TGI,UACC-257 melanoma,> 10 µM
same,TGI,UACC-62 melanoma,> 10 µM
same,TGI,UO-31 renal,> 10 µM
